Experimental data taken from patent US20100331297A1, “MODULATION OF PROTEIN TRAFFICKING” (FOLDRX PHARMACEUTICALS, INC., priority 2007, published 2010).

Legend:
Format in all cases: cell-based
ypt1^ts cells = experiment: Rescue of growth of ypt1^ts mutant yeast (OD600); settings: Saccharomyces cerevisiae, read-out: Ypt1-ts MRC (Minimum Rescue Concentration), ypt1^ts cells, 35° C. and 37° C., OD600; multiple results separated by a comma
Description: The activity of the compounds as modulators of protein trafficking may be measured in the assays described herein that evaluate the ability of a compound to rescue an impairment in protein trafficking. For example, the yeast mutant cell line ypt1^ts can be used to identify compounds that rescue cells from the lethal phenotype of a mutant YPT1 allele (see, e.g., Examples and Schmitt et al. (1988) Cell 53:635-47). The activity may be measured, for example, in a whole yeast cell assay using 384-well screening protocol and an optical density measurement.
The yeast mutant cell line ypt1^ts suppresses, in a temperature dependent fashion, the dominant-lethal phenotype of a mutant YPT1 allele (Schmitt et al. (1988) Cell 53:635-47). The yeast mutant cell line ypt1^ts contains an allele of YPT1 that has two point mutations: one that changes an asparagine at position 121 to a isoleucine (N121I) and another that changes an alanine at position 161 to a valine (A161V). The N121I mutation causes dominant lethality by itself, but lethality is suppressed by the second mutation, resulting in a recessive loss of function phenotype at the restrictive temperatures. ypt1^ts cells grow normally at temperatures up to 25° C., but are growth arrested at 37° C. (Id.).
Compounds were screened to assess their ability to restore growth of ypt1^ts cells. The effect of the compounds was measured on ypt1^ts cells cultured at room temperature (permissive temperature), 37° C. (non-permissive temperature), and 35° C. (semi-permissive temperature).
To determine if the test compounds could rescue the ypt1^ts mutant phenotype, ypt1^ts cells were grown overnight in synthetic complete (SC) media supplemented with 2% glucose at room temperature. Log phase cells were diluted into SC 2% glucose media to an OD600 of 0.003. 100 μL of this culture was then aliquoted into each well of 96-well flat bottom microtiter plates. 1 μL of the test compounds dissolved in DMSO (at a concentration range from 5 mM-0.005 mM) or of DMSO alone was added to each well (50 μM-0.05 μM final concentration in 1% DMSO). Plates were mixed by vortexing and incubated at 35° C. and 37° C. Compound rescue of the ypt1^ts temperature sensitive defect was assessed by measuring the OD600 (optical density at 600 nm; cell growth) of the cultures. Plates incubated at 35° C. were measured at 24 and 40 hours incubation time while plates grown at 37° C. were measured after 40 hours of incubation.
Assays monitoring the rescue of ypt1^ts mutants were performed using a vehicle, a positive control (calcium), and the compounds identified in Table II. Results in Table II corresponding to an MRC (Minimum Rescue Concentration) for ypt1^ts of greater than or equal to 50 micromolar are labeled +; of an MRC for ypt1^ts of 10-50 micromolar are labeled ++; and of an MRC for ypt1^ts of less than 10 micromolar are labeled +++. Multiple results for a particular compound are separated by a comma.

ΔF508 CFTR [1] = molecular target: T1, ΔF508 CFTR (Homo sapiens, UniProt P13569, DEL508-508); experiment: Corrector activity, YFP halide (iodide) quenching assay in FRT cells expressing ΔF508 CFTR; parameters: expressed in transfected cells; host or cells: Fischer rat thyroid (FRT) cells; settings: FRT cells ΔF508 CFTR/YFP, 24 hours with compound at 37° C., forskolin and genistein; read-out: Corrector EC50
T1 sequence (P13569 with tags, fused parts or gaps DEL508-508): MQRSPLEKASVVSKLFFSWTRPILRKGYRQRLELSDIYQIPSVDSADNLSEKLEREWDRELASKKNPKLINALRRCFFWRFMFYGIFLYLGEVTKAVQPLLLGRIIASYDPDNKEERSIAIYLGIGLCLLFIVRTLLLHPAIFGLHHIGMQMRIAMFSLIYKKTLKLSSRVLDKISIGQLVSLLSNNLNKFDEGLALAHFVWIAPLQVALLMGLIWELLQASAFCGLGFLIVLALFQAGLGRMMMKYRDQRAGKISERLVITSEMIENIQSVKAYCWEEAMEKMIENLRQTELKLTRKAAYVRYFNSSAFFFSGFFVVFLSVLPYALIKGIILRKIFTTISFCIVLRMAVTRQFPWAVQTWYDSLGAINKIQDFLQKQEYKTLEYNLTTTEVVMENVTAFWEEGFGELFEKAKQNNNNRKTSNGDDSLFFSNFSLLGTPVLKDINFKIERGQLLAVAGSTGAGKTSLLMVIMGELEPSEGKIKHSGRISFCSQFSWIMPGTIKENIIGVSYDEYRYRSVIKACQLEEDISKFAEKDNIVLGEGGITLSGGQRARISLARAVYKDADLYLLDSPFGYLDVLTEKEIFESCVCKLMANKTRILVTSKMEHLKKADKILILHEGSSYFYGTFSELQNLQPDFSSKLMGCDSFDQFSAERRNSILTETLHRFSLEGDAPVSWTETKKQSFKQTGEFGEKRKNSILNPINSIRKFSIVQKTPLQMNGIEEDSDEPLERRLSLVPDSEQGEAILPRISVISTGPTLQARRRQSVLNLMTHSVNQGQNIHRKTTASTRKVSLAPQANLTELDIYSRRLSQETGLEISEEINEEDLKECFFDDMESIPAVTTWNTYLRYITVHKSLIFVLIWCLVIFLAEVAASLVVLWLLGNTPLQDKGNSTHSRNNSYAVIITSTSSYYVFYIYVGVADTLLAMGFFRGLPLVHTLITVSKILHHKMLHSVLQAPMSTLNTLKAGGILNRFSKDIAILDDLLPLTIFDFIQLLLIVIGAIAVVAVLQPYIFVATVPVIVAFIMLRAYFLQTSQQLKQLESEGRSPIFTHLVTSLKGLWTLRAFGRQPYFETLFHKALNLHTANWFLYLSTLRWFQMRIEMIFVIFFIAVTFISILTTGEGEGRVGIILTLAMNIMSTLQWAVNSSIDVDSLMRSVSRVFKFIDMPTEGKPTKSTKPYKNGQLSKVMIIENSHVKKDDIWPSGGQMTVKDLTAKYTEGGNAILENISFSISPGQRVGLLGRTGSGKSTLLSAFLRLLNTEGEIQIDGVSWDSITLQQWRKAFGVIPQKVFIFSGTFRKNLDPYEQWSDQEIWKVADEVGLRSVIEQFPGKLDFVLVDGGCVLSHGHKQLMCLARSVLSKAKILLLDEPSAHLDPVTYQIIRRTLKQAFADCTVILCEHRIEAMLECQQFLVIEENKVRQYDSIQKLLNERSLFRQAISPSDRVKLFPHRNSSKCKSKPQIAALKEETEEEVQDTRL
Method in brief: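 FRT cells co-expressing ΔF508 CFTR and halide-sensitive YFP were incubated 24 h at 37° C with compounds, then stimulated 30 min at 37° C in PBS with forskolin and genistein. Endpoint fluorescence after iodide injection was normalized to initial reading; EC50 from 4-parameter fit with bottom constrained to DMSO control.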

ΔF508 CFTR [2] = molecular target: T1, ΔF508 CFTR; experiment: Potentiator activity, YFP halide (iodide) quenching assay in FRT cells expressing ΔF508 CFTR, 27° C. pre-incubation; parameters: expressed in transfected cells; host or cells: Fischer rat thyroid (FRT) cells; settings: FRT cells ΔF508 CFTR/YFP, 24 hours at 27° C., compound with forskolin 30 min
Method in brief: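 FRT cells stably co-expressing ΔF508 CFTR and halide-sensitive YFP, grown 24 h at 37° C. then 24 h at 27° C. to raise surface CFTR. Compounds in PBS with forskolin, 30 min at 37° C.; iodide injected and YFP quenching (ex 485/em 530 nm) followed. EC50 from normalized endpoint fluorescence.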

EC50 (ΔF508 CFTR [1]) [µM] | EC50 (ΔF508 CFTR [2]) [µM] | Compound | minimal effective concentration (ypt1^ts cells) [µM]
 |  | CC(C)(C)n1nc(-c2ccccc2Cl)c2c(N)ncnc21 [compound 7] | > 50
 |  | CC(C)(C)n1nc(-c2ccc(F)cc2)c2c(N)ncnc21 [compound 9, 1-tert-Butyl-3-(4-fluoro-phenyl)-1H-pyrazolo[3,4-d]pyrimidin-4-ylamine] | > 50
 |  | CC(C)(C)n1ncc2c(N)ncnc21 [compound 12, 1-tert-butyl-1H-pyrazolo[3,4-d]pyrimidin-4-ylamine] | > 50
 |  | COc1ccc(-c2nn(C(C)(C)C)c3ncnc(N)c23)cc1 [compound 13] | > 50
 |  | CC(C)(C)n1nc(-c2ccc(-c3ccccc3)cc2)c2c(N)ncnc21 [compound 14] | > 50
 |  | CC(C)(C)n1nc(-c2cccs2)c2c(N)ncnc21 [compound 15] | > 50
 |  | CC(C)c1ccc(-c2nn(C(C)(C)C)c3ncnc(N)c23)cc1 [compound 17] | > 50
 |  | CC(C)(C)c1ccc(-c2nn(C(C)(C)C)c3ncnc(N)c23)cc1 [compound 18] | > 50
 |  | CC(C)(C)n1nc(Cc2ccc(Cl)cc2)c2c(N)ncnc21 [compound 19] | < 10
 |  | CC(C)(C)n1nc(Cc2ccccc2Cl)c2c(N)ncnc21 [compound 20] | 10 to 50
 |  | CC(C)(C)n1nc(Cc2ccc(Cl)c(Cl)c2)c2c(N)ncnc21 [compound 21] | > 50
> 15 | > 15 | CCOC(=O)N1CCC(n2nc(-c3ccc(Cl)cc3)c3c(N)ncnc32)CC1 [compound 303] | 
> 15 | > 15 | CC(=O)N1CC(n2cc(Cc3cccc4ccccc34)c3c(N)ncnc32)C1 [compound 306] | 
> 15 | > 15 | Nc1ncnc2c1c(-c1ccc(Cl)cc1)nn2[C@@H]1CCOC1 [compound 307] | 
5 to 10 | > 15 | CCn1nc(Nc2cccc3ccccc23)c2c(N)ncnc21 [compound 308] | 
2 to 5 | > 15 | Nc1ncnc2c1c(-c1ccc(Cl)cc1)cn2CC(O)CF (stereo not drawn) [compound 309] | 
< 2 | > 15 | Cn1cc(-c2ccc(Cl)cc2)c2c(N)ncnc21 [compound 310] | 
2 to 5 | 5 to 10 | C=CCn1cc(-c2ccc(Cl)cc2)c2c(N)ncnc21 [compound 311] | 
> 15 | 5 to 10 | COc1nn(C(C)(C)C)c2ncnc(N)c12 [compound 312, 1-tert-butyl-3-methoxy-1H-pyrazolo[3,4-d]pyrimidin-4-ylamine] | 
> 15 | 2 to 5 | CCn1nc(Nc2ccc3c(c2)OC(F)(F)O3)c2c(N)ncnc21 [compound 313] | 
> 15 | > 15 | CN(c1ccccc1)c1nn(C2CCC2)c2ncnc(N)c12 [compound 314] | 
< 2 | 2 to 5 | CC(C)n1cc(-c2ccc(Cl)cc2)c2c(N)ncnc21 [compound 315] | 
5 to 10 | 2 to 5 | CC(C)(C)Cn1cc(-c2ccc(Cl)cc2)c2c(N)ncnc21 [compound 316] | 
> 15 | > 15 | CCn1nc(N(C)c2cccc(Cl)c2)c2c(N)ncnc21 [compound 317] | 
> 15 | > 15 | Nc1ncnc2c1c(-c1ccc(Cl)cc1)nn2[C@H]1CCOC1 [compound 318] | 
> 15 | > 15 | CCNC(=O)N1CCC(n2nc(-c3ccc(Cl)cc3)c3c(N)ncnc32)CC1 [compound 319] | 

EC50 (ΔF508 CFTR [1]) [µM] | EC50 (ΔF508 CFTR [2]) [µM] | Compound | minimal effective concentration (ypt1^ts cells) [µM]
< 2 | < 2 | CC(C)(C)n1cc(-c2ccc(Cl)cc2)c2c(NC(=O)C3CCCC3)ncnc21 [compound 321] | 
2 to 5 | 2 to 5 | CCn1cc(-c2ccc(Cl)cc2)c2c(NC(=O)C(C)(C)C)ncnc21 [compound 322] | 
> 15 | < 2 | CCn1nc(Sc2cccc(C(F)(F)F)c2)c2c(N)ncnc21 [compound 323] | 
> 15 | > 15 | CCn1nc(Sc2ccccn2)c2c(N)ncnc21 [compound 324] | 
> 15 | > 15 | CC(C)(C)n1nc(O)c2c(N)ncnc21 [compound 325, 4-amino-1-tert-butyl-1H-pyrazolo[3,4-d]pyrimidin-3-ol] | 
> 15 | > 15 | CC(C)(C)n1nc(Oc2ncccn2)c2c(N)ncnc21 [compound 326] | 
> 15 | < 2 | Nc1ncnc2c1c(-c1ccc(Cl)cc1)cn2Cc1ccccc1 [compound 327] | 
> 15 | > 15 | CCn1cc(-c2ccc(Cl)cc2)c2c(NC(=O)NC(C)C)ncnc21 [compound 328] | 
> 15 | > 15 | CC(C)(C)n1nc([S+]([O-])c2ccccn2)c2c(N)ncnc21 (stereo not drawn) [compound 329] | 
> 15 | > 15 | CC(C)(C)n1nc(Oc2ccccn2)c2c(N)ncnc21 [compound 330] | 
> 15 | 2 to 5 | CC(C)(C)n1nc(Oc2ccccc2[N+](=O)[O-])c2c(N)ncnc21 [compound 331] | 
> 15 | > 15 | CC(=O)C1CC(n2nc(Sc3ccccc3)c3c(N)ncnc32)C1 (stereo not drawn) [compound 334] | 
5 to 10 | > 15 | CC(C)(C)n1nc(-c2ccc(Cl)cc2)c2c(NC(=O)O[C@@H]3CCOC3)ncnc21 [compound 335] | 
< 2 | 5 to 10 | CCn1cc(-c2ccc(Cl)cc2)c2c(NC(=O)C(C)C)ncnc21 [compound 336] | 
> 15 | > 15 | CC(C)N1CCC(n2nc(-c3ccc(Cl)cc3)c3c(N)ncnc32)CC1 [compound 342] | 
> 15 | < 2 | CC(C)(C)OC(=O)n1nc(Sc2cccc(Cl)c2)c2c(N)ncnc21 [compound 343] | 
> 15 | > 15 | CC(=O)N1CC(n2nc(Sc3cccc(Cl)c3)c3c(N)ncnc32)C1 [compound 344] | 
> 15 | > 15 | CCOC(=O)N1CC(n2nc(Sc3ccccc3)c3c(N)ncnc32)C1 [compound 347] | 
2 to 5 | 2 to 5 | CC(C)(C)C(=O)Nc1ncnc2c1c(-c1ccc(Cl)cc1)cn2C(C)(C)C [compound 349] | 
< 2 | > 15 | CCn1cc(-c2ccc(Cl)cc2)c2c(NC(=O)C3CCCC3)ncnc21 [compound 350] | 
2 to 5 | < 2 | CC(C)(C1CC1)n1cc(-c2ccc(Cl)cc2)c2c(N)ncnc21 [compound 351] | 
< 2 | < 2 | CC(C)C(=O)Nc1ncnc2c1c(-c1ccc(Cl)cc1)cn2C(C)C [compound 352] | 
> 15 | 5 to 10 | CCn1nc([S+]([O-])c2ccccn2)c2c(N)ncnc21 (stereo not drawn) [compound 353] | 
> 15 | > 15 | Nc1ncnc2c1c(-c1ccc(Cl)cc1)nn2C1CNC1 [compound 411] | 
> 15 | > 15 | Nc1ncnc2c1c(-c1ccc(Cl)cc1)nn2C1CCNCC1 [compound 412] | 
> 15 | > 15 | Nc1ncnc2c1c(Cc1cccc3ccccc13)nn2C1CNC1 [compound 413] | 
